Results published in US11939314B2, “Quinolin-2-one derivatives” (MERCK PATENT GMBH, priority 2016, dated 2024).

How the values were obtained:
PDGFRalpha(V561D) = target: T1, PDGFRalpha(V561D) (Homo sapiens, UniProt P16234, V561D); assay: PDGFRalpha(V561D) assay; assay type: biochemical; settings: recombinant human PDGFRalpha aa 550-end, 200 μM ATP, 1.4E-06 means 1.4×10^−6, read-out: Inhibition (IC50) of PDGFRα (V561D)
T1 construct: recombinant human PDGFRalpha, amino acids 550end containing the V561 D mutation; 6His (N)
Method: (§1) PDGFRalpha(V561D) (N-terminal 6His-tagged, recombinant human PDGFRalpha, amino acids 550end containing the V561 D mutation) is incubated with 8 mM MOPS pH 7.0, 0.2 mM EDTA, 250 μM GGMEDIYEFMGGKKK, 10 mM MgAcetate and [gamma-33P-ATP] (specific activity approx. 500 cpm/pmol, concentration 200 μM). The reaction is initiated by the addition of the MgATP mix. After incubation for 40 minutes at room temperature, the reaction is stopped by the addition of 3% phosphoric acid solution. 10 μL of the reaction is then spotted onto a P30 filtermat and washed three times for 5 minutes in 75 mM phosphoric acid and once in methanol prior to drying and scintillation counting.

c-Kit(V654A) = target: T2, c-Kit(V654A) (Homo sapiens, UniProt P10721, V654A); assay: c-Kit(V654A) assay; assay type: biochemical; settings: recombinant human c-Kit aa 544-end, 200 μM ATP, 1.4E-06 means 1.4×10^−6, read-out: Inhibition (IC50) of c-KIT (V654A)
T2 construct: amino acids 544-end containing the V654A mutation; GST (N)
Method: as §1, with “c-Kit(V654A)” for “PDGFRalpha(V561D)”, “GST-tagged,” for “6His-tagged,”, “c-Kit,” for “PDGFRalpha,”, “544-end” for “550end”, “V654A” for “V561 D”

T2 sequence (P10721 544-976 V654A): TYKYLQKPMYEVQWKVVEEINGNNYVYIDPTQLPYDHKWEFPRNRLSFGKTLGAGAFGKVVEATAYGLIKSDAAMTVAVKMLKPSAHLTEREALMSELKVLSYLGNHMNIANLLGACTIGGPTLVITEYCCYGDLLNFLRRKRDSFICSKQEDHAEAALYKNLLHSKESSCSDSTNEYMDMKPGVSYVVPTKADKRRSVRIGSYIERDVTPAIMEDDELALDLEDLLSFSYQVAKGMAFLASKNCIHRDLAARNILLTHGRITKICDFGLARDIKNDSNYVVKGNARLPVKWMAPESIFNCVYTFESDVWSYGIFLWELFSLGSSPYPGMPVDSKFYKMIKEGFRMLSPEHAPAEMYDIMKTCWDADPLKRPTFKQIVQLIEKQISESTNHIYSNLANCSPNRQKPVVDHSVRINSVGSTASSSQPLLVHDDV
T1 sequence (P16234 550-1089 V561D): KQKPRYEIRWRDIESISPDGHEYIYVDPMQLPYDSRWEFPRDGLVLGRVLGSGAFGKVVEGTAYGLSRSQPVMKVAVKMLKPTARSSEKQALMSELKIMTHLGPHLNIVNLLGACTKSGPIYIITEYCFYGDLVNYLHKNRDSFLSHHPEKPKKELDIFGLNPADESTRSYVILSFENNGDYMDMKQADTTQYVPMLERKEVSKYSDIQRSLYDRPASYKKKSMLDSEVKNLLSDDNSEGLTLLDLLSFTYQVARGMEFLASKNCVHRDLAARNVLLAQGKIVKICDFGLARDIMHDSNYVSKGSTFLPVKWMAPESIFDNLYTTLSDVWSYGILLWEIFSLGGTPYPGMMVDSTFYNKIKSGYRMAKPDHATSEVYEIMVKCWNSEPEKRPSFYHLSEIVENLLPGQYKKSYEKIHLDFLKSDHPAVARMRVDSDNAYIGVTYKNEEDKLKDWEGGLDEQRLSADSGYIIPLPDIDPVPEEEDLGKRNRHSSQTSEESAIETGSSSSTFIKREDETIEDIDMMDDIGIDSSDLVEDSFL

| Compound | IC50 (PDGFRalpha(V561D)) | IC50 (c-Kit(V654A)) |
| --- | --- | --- |
| CN(C)[C@H]1CCCN(C(=O)c2ccc(-n3cc(-c4cc5cc(F)c(F)cc5[nH]c4=O)nn3)cc2)C1 [A329, 3-{1-[4-((S)-3-dimethylamino-piperidine-1-carbonyl)-phenyl]-1H-[1,2,3]triazol-4-yl}-6,7-difluoro-1H-quinolin-2-one] | 92 nM | 73 nM |
| CN1CCN(C(=O)c2ccc(-n3cc(-c4cc5c(F)cc(F)cc5[nH]c4=O)nn3)cc2)CC1=O [A95, 5,7-difluoro-3-{1-[4-(4-methyl-3-oxo-piperazine-1-carbonyl)-phenyl]-1H-[1,2,3]triazol-4-yl}-1H-quinolin-2-one] | 370 nM | 9 nM |
| CN1CC[C@H](Oc2ccc(-n3cc(-c4cc5cc(Cl)ccc5[nH]c4=O)nn3)cc2)C1 [A368, 6-chloro-3-{1-[4-((S)-1-methyl-pyrrolidin-3-yloxy)-phenyl]-1H-[1,2,3]triazol-4-yl}-1H-quinolin-2-one] | 34 nM | 23 nM |
| COc1ccc(-n2cc(-c3cc4ccccc4[nH]c3=O)nn2)cc1 [A10, 3-[1-(4-methoxy-phenyl)-1H-[1,2,3]triazol-4-yl]-1H-quinolin-2-one] | 32 nM | 82 nM |
| O=C(c1ccc(-n2cc(-c3cc4c(F)c(F)ccc4[nH]c3=O)nn2)cc1)N1CCNCC1 [A127, 5,6-difluoro-3-{1-[4-(piperazine-1-carbonyl)-phenyl]-1H-[1,2,3]triazol-4-yl}-1H-quinolin-2-one] | 79 nM | 38 nM |
| CO[C@H]1CCCN(C(=O)c2ccc(-n3cc(-c4cc5cc(F)c(F)cc5[nH]c4=O)nn3)cc2)C1 [A193, 6,7-difluoro-3-{1-[4-((S)-3-methoxy-piperidine-1-carbonyl)-phenyl]-1H-[1,2,3]triazol-4-yl}-1H-quinolin-2-one] | 200 nM | 230 nM |
| CN1CC[C@@H](Oc2ccc(-n3cc(-c4cc5cc(F)ccc5[nH]c4=O)nn3)cc2)C1 [A367, 6-fluoro-3-{1-[4-((R)-1-methyl-pyrrolidin-3-yloxy)-phenyl]-1H-[1,2,3]triazol-4-yl}-1H-quinolin-2-one] | 70 nM | 19 nM |
| O=c1[nH]c2ccncc2cc1-c1cnn(-c2ccccc2)c1 [A46, 3-(1-phenyl-1H-pyrazol-4-yl)-1H-[1,6]naphthyridin-2-one] | 150 nM | 370 nM |
| O=c1[nH]c2ccc(F)cc2cc1-c1cn(-c2ccc(S(=O)(=O)N3CCNCC3)cc2)nn1 [A129, 6-fluoro-3-{1-[4-(piperazine-1-sulfonyl)-phenyl]-1H-[1,2,3]triazol-4-yl}-1H-quinolin-2-one] | 48 nM | 13 nM |
| O=c1[nH]c2ccccc2cc1-c1cn(-c2ccc(N3CCNCC3)cc2)nn1 [A52, 3-[1-(4-piperazin-1-yl-phenyl)-1H-[1,2,3]triazol-4-yl]-1H-quinolin-2-one] | 27 nM | 22 nM |
| O=C(c1ccc(-n2cc(-c3cc4cc(F)ccc4[nH]c3=O)nn2)cc1)N1CCC(N2CCC(O)CC2)C1 (centres unmarked) [A208, 6-fluoro-3-(1-{4-[3-(4-hydroxy-piperidin-1-yl)-pyrrolidine-1-carbonyl]-phenyl}-1H-[1,2,3]triazol-4-yl)-1H-quinolin-2-one] | 180 nM | 18 nM |
| O=C(c1ccc(-n2cc(-c3cc4cc(F)ccc4[nH]c3=O)nn2)cc1)N1CCCCC12COC2 [A245, 6-fluoro-3-{1-[4-(2-oxa-5-aza-spiro[3.5]nonane-5-carbonyl)-phenyl]-1H-[1,2,3]triazol-4-yl}-1H-quinolin-2-one] | 470 nM | 65 nM |
| CO[C@@H]1CCCN(C(=O)c2ccc(-n3cc(-c4cc5cc(F)ccc5[nH]c4=O)nn3)cc2)C1 [A194, 6-fluoro-3-{1-[4-((R)-3-methoxy-piperidine-1-carbonyl)-phenyl]-1H-[1,2,3]triazol-4-yl}-1H-quinolin-2-one] | 91 nM | 49 nM |
| CO[C@H]1CN(C(=O)c2ccc(-n3cc(-c4cc5cc(F)ccc5[nH]c4=O)cn3)cc2)C[C@@H]1OC [A303, 3-{1-[4-((3S,4S)-3,4-dimethoxy-pyrrolidine-1-carbonyl)-phenyl]-1H-pyrazol-4-yl}-6-fluoro-1H-quinolin-2-one] | 6 nM | 37 nM |
| CN(C)[C@H]1CCCN(C(=O)c2ccc(-n3cc(-c4cc5ccc(F)cc5[nH]c4=O)nn3)cc2)C1 [A336, 3-{1-[4-((S)-3-dimethylamino-piperidine-1-carbonyl)-phenyl]-1H-[1,2,3]triazol-4-yl}-7-fluoro-1H-quinolin-2-one] | 240 nM | 180 nM |
| O=C(c1ccc(-n2cc(-c3cc4cc(F)ccc4[nH]c3=O)nn2)cc1)N1CCC(F)(F)C1 [A267, 3-{1-[4-(3,3-difluoro-pyrrolidine-1-carbonyl)-phenyl]-1H-[1,2,3]triazol-4-yl}-6-fluoro-1H-quinolin-2-one] | 1.4 nM | 17 nM |
| CN(C)C1CCN(C(=O)c2ccc(-n3cc(-c4cc5cc(F)c(F)cc5[nH]c4=O)nn3)cc2)CC1 [A171, 3-{1-[4-(4-dimethylamino-piperidine-1-carbonyl)-phenyl]-1H-[1,2,3]triazol-4-yl}-6,7-difluoro-1H-quinolin-2-one] | 190 nM | 17 nM |
| O=C1COCCN1c1ccc(-n2cc(-c3cc4ccncc4[nH]c3=O)nn2)cc1 [A49, 3-{1-[4-(3-oxo-morpholin-4-yl)-phenyl]-1H-[1,2,3]triazol-4-yl}-1H-[1,7]naphthyridin-2-one] | 42 nM | 150 nM |
| O=C(c1ccc(-n2cc(-c3cc4ccccc4[nH]c3=O)nn2)cc1)N1CCOCC1 [A2, 3-{1-[4-(morpholine-4-carbonyl)-phenyl]-1H-[1,2,3]triazol-4-yl}-1H-quinolin-2-one] | 12 nM | 51 nM |
| O=c1[nH]c2cc(F)c(F)cc2cc1-c1cn(-c2ccc(CCN3CCCC3)cc2)nn1 [A115a, 6,7-difluoro-3-{1-[4-(2-pyrrolidin-1-yl-ethyl)-phenyl]-1H-[1,2,3]triazol-4-yl}-1H-quinolin-2-one] | 1500 nM | 160 nM |
| O=C(c1ccc(-n2cc(-c3cc4c(F)cccc4[nH]c3=O)nn2)cc1)N1CCOCC1 [A48, 5-fluoro-3-{1-[4-(morpholine-4-carbonyl)-phenyl]-1H-[1,2,3]triazol-4-yl}-1H-quinolin-2-one] | 19 nM | 17 nM |
| O=c1[nH]c2ccccc2cc1-c1cn(-c2ccc(N3CCCNCC3)cc2)nn1 [A55, 3-[1-(4-[1,4]diazepan-1-yl-phenyl)-1H-[1,2,3]triazol-4-yl]-1H-quinolin-2-one] | 14 nM | 14 nM |
| O=C(c1ccc(-n2cc(-c3cc4cc(F)cnc4[nH]c3=O)nn2)cc1)N1CCOCC1 [A31, 6-fluoro-3-{1-[4-(morpholine-4-carbonyl)-phenyl]-1H-[1,2,3]triazol-4-yl}-1H-[1,8]naphthyridin-2-one] | 13 nM | 99 nM |
| CO[C@@H]1C[C@H](CO)N(C(=O)c2ccc(-n3cc(-c4cc5cc(F)ccc5[nH]c4=O)cn3)cc2)C1 [A302, 6-fluoro-3-{1-[4-((2R,4R)-2-hydroxymethyl-4-methoxy-pyrrolidine-1-carbonyl)-phenyl]-1H-pyrazol-4-yl}-1H-quinolin-2-one] | 1.2 nM | 31 nM |
| O=C(c1ccc(-n2cc(-c3cc4cc(F)c(F)cc4[nH]c3=O)nn2)cc1)C1CCNCC1 [A136, 6,7-difluoro-3-{1-[4-(piperidine-4-carbonyl)-phenyl]-1H-[1,2,3]triazol-4-yl}-1H-quinolin-2-one] | 18 nM | 15 nM |
